We go through two molecules from patent US20240124443A1, “PLASMIN INHIBITOR, PREPARATION METHOD THEREFOR, AND APPLICATION THEREOF” (SCINNOHUB PHARMACEUTICAL CO., LTD, priority 2021, published 2024).

A short description of series [1]: Monkey PK experiment (plasma concentration by LC-MS/MS). Format: in vivo. As to conditions: male cynomolgus monkey, 1 mg/kg intravenous injection, single dose, fasted. Here is the method:
Male Cynomolgus monkey, normal grade, 3 monkeys each group (N=3)
The compound is weighed and dissolved in normal saline to prepare a 0.5 mg/mL clear solution for intravenous administration.
On the day of the experiment, the animals were administered according to the scheme in the table below. At each time point after administration, approximately 1 mL of blood was collected from the forearm vein and placed in heparin sodium anticoagulation tubes. Blood samples were placed on ice after collection, and the plasma was separated by centrifugation within 1 hour (centrifugation conditions: 2200 g, 10 minutes, 2-8° C.). The plasma samples were stored in a refrigerator at −80° C. until analysis.
The compound concentration in cynomolgus monkey plasma was determined by the following method: • Instruments and equipment: LC-MS/MS-19 (TQ5500, AB SCIEX, USA). • Internal standard: warfarin. • Chromatographic column: ACQUITY UPLC BEH C18, model 1.7 um 2.1*50 mm, purchased from Shenzhen Novah Chemical Technology Co., Ltd.; • Flow rate: 0.60 ml/min. • Column temperature: 40° C. • Mobile phase A: 0.1% formic acid in water. • Mobile phase B: 0.1% formic acid in acetonitrile.
Take 30 μL of the plasma sample prepared from item “2” , add 300 μL MeOH containing 100 ng/mL of internal standard to precipitate protein. The mixture was vortexed for 1 minute and centrifuged at 18000 g for 7 minutes. The supernatant was transferred to a 96-well plate. Inject 4 μL of supernatant into LC-MS/MS for analysis.
Pharmacokinetic parameters were calculated by using Phoenix WinNonlin7.0 software according to blood concentration data of different time points.

The subject of series [2] is fibrinolysis. As to conditions: cited from earlier work.

In series [1], `Cl.O=C(O)c1ccc2c(n1)CCNC2` [Example 1, 5,6,7,8-tetrahydro-1,6-naphthyridine-2-carboxylic acid hydrochloride] gave an AUC of 4110 ng·h/mL, a Cmax of 10600 ng/mL and a clearance of 4 mL/min/kg.
Take `NC[C@H]1CC[C@H](C(=O)O)CC1` [tranexamic acid, trans-4-aminomethyl-cyclohexane-carboxylic acid]: the “anti-fibrinolytic activity relative to EACA” value in series [2] is given as “about 10 times”.
